According to patent publication US9526720B2, “Modulators of hepatic lipoprotein metabolism” (The Broad Institute, Inc., priority 2012, dated 2016):

Tests used:
ApoB = experiment: ELISA of secreted ApoB in HepG2 cells; assay type: cell-based, human; set-up: key to ELISA 24 Hr (EC50 uM) ApoB decrease: A: EC50 between 0.0000001 μM≦0.5 μM; B: EC50 between 0.51 μM≦1.0 μM; EC50 between 1.1 μM≦2.0 μM; D: EC50 between 2.1 μM≦5.0 μM; EC50 between 5.1 μM≦10 μM; F: EC50>10 μM; NC: No change; conditions: for EC50: Homo sapiens, HepG2, 24 h, read-out: ELISA 24 Hr (EC50 uM) ApoB decrease
Protocol: (§1) Additional secondary assays were performed in HepG2 cells to further characterize the cellular response to treatment with select confirmed TRIB1 inducer hits. The results of the ELISA, CTG, and qPCR secondary assays are summarized in Table B. For all secondary assays, the experiments were performed using powders of freshly purified compounds.
(§2) To further characterize the relationship of TRIB1 induction and PCSK9 reduction, ELISAs were performed to measure the levels of secreted ApoB, PCSK9, and LDLR. […] As predicted treatment with TRIB1 inducer hits caused a decrease in ApoB levels detected by ELISA. In parallel effort, 3200 BIOA and NATP compounds were screened for PCSK9 expression inhibitors. Hits were defined as inducing greater than 3-fold downregulation of PCSK9, and 3.8% of the screened compounds were confirmed as hits. […] In further experiments, a strong correlation was confirmed between TRIB1 induction and PCSK9 repression in DOS Collection hits. ELISA analysis confirmed that treatment with TRIB1 inducers reduced the PCSK9 protein levels. LDLR protein levels were also analyzed by ELISA to determine whether compounds that modulate both TRIB1 and PCSK9 had any effect on LDLR protein levels.

LDLR [1] = experiment: ELISA of LDLR protein in HepG2 cells; assay type: cell-based, human; conditions: Homo sapiens, HepG2, 24 h; read-out: ELISA 24 Hr (EC50 uM) LDLR increase
Protocol: as §1, §2

PCSK9 [2] = experiment: ELISA of secreted PCSK9 protein in HepG2 cells; assay type: cell-based, human; conditions: Homo sapiens, HepG2, 24 h; read-out: ELISA 24 Hr (EC50 uM) PCSK9 decrease
Protocol: as §1, §2

PCSK9 [3] = experiment: qPCR PCSK9 expression in HepG2 cells; assay type: cell-based, human; conditions: Homo sapiens, HepG2, 24 h; read-out: qPCR 24 Hr (EC50 uM) PCSK9 down-regulation
Protocol: (§3) In the primary screen, HepG2 cells were plated in 384-well plates at 2000 cells per well and incubated for 20 hours with each compound in duplicate at 10 microM concentration. Then RNA was isolated, reverse-transcribed to cDNA, and stored at −80° C. Expression levels of TRIB1 and other target genes, such as SORT1 and PCSK9, were determined by quantitative PCR. Relative gene expression level was normalized to expression of the housekeeping gene, GAPDH. A “hit” was defined as those compounds that caused a greater than 2-fold increase in relative target gene expression when normalized to GAPDH expression, compared to DMSO-treated control. Using these criteria, 130 hits were identified for TRIB1 (0.8% hit rate).
(§4) Further analysis of the expression levels of various proteins in the cholesterol and triglyceride biosynthetic pathways in response to TRIB1 inducer treatment was performed. In particular, transcript levels of additional lipoprotein metabolism pathway proteins SCAP, SREBF1, SREBF2, HMGCR, HMGCS, SCD1, FASN and MTTP were assessed by qPCR, along with TRIB1, LDLR, and PCSK9. The gene expression profile for the same subset of genes was also assessed after treatment with the statin atorvastatin (Lipitor), commonly used in therapy for hypercholesterolemia and other cardiovascular diseases.
(§5) The kinetics of the modulation of TRIB1, LDLR, PCSK9 and MTTP gene expression after treatment by select TRIB1 inducer compounds was monitored by qPCR analysis (FIG. 4). RNA was extracted from cells at various timepoints over 28 hours of treatment (0, 2, 4, 6, 8, 24, 28 hours). Specifically, compounds 12a and 14a induced transcriptional responses over time similar to those produced by berberine, a plant alkaloid used in Chinese medicine. […] Both compound 12a and compound 14a induce TRIB1 and LDLR and repress PCSK9 and MTTP expression with similar kinetics and similar fold change as berberine Importantly, both compounds induce these gene expression changes at much lower concentrations than berberine. […] This increased potency indicates the potential therapeutic efficacy of such compounds for treatment of cardiovascular diseases, particularly hypercholesterolemia and related conditions.

LDLR [4] = experiment: qPCR LDLR expression in HepG2 cells; assay type: cell-based, human; conditions: Homo sapiens, HepG2, 6 h; read-out: qPCR 6Hr (EC50 uM) LDLR up-regulation
Protocol: as §3, §4, §5

TRIB1 = experiment: qPCR TRIB1 expression in HepG2 cells; assay type: cell-based; conditions: Homo sapiens, HepG2, 6 h; read-out: qPCR 6Hr (EC50 uM) TRIB1 up-regulation

Row | SMILES | EC50 (ApoB) [µM] | EC50 (LDLR [1]) [µM] | EC50 (PCSK9 [2]) [µM] | EC50 (PCSK9 [3]) [µM] | EC50 (LDLR [4]) [µM] | EC50 (TRIB1) [µM] | ELISA 24 Hr (EC50 uM) ApoB decrease (ApoB)
1 | N#C[C@H]1[C@H](c2ccc(-c3cccc(F)c3)cc2)[C@@H](CO)N1C(=O)NC1CCCC1 [Compound 20a] | > 10 | 1.1 to 2 | 1.1 to 2 | 0.51 to 1 | 2.1 to 5 | 2.1 to 5 | –
2 | CN(C)C(=O)c1ccc(-c2ccc([C@H]3[C@@H](C#N)N(C(=O)C4CCC4)[C@@H]3CO)cc2)cc1 [Compound 22a] | – | 1.1 to 2 | 2.1 to 5 | 1.1 to 2 | 2.1 to 5 | 2.1 to 5 | NC
3 | CCCNC(=O)N1[C@H](C#N)[C@H](c2ccc(-c3cccnc3)cc2)[C@@H]1CO [Compound 23a] | – | 0.51 to 1 | 1.1 to 2 | 1.1 to 2 | 2.1 to 5 | 2.1 to 5 | NC
4 | N#C[C@@H]1[C@H](c2ccc(-c3cccc(F)c3)cc2)[C@@H](CO)N1C(=O)c1cccnc1 [Compound 24a] | – | 5.1 to 10 | 2.1 to 5 | – | 2.1 to 5 | 5.1 to 10 | NC

Continued, values first:

Row | EC50 (ApoB) [µM] | EC50 (LDLR [1]) [µM] | EC50 (PCSK9 [2]) [µM] | EC50 (PCSK9 [3]) [µM] | EC50 (LDLR [4]) [µM] | EC50 (TRIB1) [µM] | ELISA 24 Hr (EC50 uM) ApoB decrease (ApoB) | SMILES
5 | 0.51 to 1 | 2.1 to 5 | 0.51 to 1 | 0.51 to 1 | 1.1 to 2 | 1.1 to 2 | – | CN(C)C(=O)c1ccc(-c2ccc([C@H]3[C@@H](C#N)N(C(=O)C4CCC4)[C@H]3CO)cc2)cc1 [Compound 18a]
6 | 2.1 to 5 | 2.1 to 5 | 1.1 to 2 | 1.1 to 2 | 1.1 to 2 | 2.1 to 5 | – | CN(C)C(=O)c1ccc(-c2ccc([C@H]3[C@@H](C#N)N(C(=O)C4CCCC4)[C@H]3CO)cc2)cc1 [Compound 19a]
7 | > 10 | 5.1 to 10 | 1.1 to 2 | 0.51 to 1 | 5.1 to 10 | 2.1 to 5 | – | N#C[C@@H]1[C@H](c2ccc(-c3ccccc3F)cc2)[C@H](CO)N1C(=O)C1CCC1 [Compound 21a]
